What was measured:
p38 MAPKα (MAPK14) = p38 MAPKα (MAPK14) (Homo sapiens (Human), UniProt Q16539); experiment: p38 MAPKα enzyme inhibition (FRET, Z-LYTE; Method 2); assay type: biochemical
Syk = Syk (Homo sapiens (Human), UniProt P43405); experiment: Syk enzyme inhibition (FRET, Z-LYTE); assay type: biochemical
Summary of the method: (§1)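 Syk or c-Src enzyme (3000 or 2000 ng/mL solutions) was preincubated 2 h at RT with compound solutions at 1, 0.1, 0.01 or 0.001 µg/mL. Z-LYTE FRET peptide (8 µM solution) and ATP (800 µM solution for c-Src, 60 µM for Syk) were then added for 1 h, followed by protease development for 1 h. Phosphorylation was read as the coumarin/fluorescein emission ratio.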

[1] = tested on: β-catenin in d-U937 cells; experiment: Accumulation of β catenin in d-U937 cells (assay m); assay type: cell-based, human
Summary of the method: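 U937 cells were differentiated with PMA (100 ng/mL) for 48–72 hr, then treated with compound or vehicle for 18 hr. After formaldehyde fixation, β-catenin was detected with a primary antibody and an HRP secondary using TMB (OD450–655). Signal was normalised to crystal violet cell staining (OD595).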

c-Src = c-Src (Homo sapiens (Human), UniProt P12931); experiment: c-Src enzyme inhibition (FRET, Z-LYTE); assay type: biochemical
c-Src, sequence (P12931 whole entry, looked up): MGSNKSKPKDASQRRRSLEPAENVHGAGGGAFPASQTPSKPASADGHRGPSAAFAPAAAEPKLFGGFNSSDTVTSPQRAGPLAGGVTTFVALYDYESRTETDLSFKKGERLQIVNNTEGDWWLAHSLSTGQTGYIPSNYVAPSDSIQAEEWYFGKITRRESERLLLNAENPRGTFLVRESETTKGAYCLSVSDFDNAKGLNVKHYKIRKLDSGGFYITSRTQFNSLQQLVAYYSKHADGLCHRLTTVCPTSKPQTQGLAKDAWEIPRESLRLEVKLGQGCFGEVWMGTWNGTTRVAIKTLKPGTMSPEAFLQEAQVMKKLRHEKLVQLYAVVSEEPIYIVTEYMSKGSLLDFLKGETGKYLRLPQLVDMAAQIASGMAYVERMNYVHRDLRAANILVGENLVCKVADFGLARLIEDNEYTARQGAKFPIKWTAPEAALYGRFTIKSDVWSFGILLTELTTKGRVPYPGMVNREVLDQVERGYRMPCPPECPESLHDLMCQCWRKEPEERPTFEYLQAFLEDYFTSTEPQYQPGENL
Summary of the method: as §1

GSK 3α = GSK 3α (Homo sapiens (Human), UniProt P49840); experiment: GSK 3α enzyme inhibition (FRET, Z-LYTE; Method 2); assay type: biochemical; conditions: read-out: IC50 Values for Enzyme Inhibition GSK3α
GSK 3α, sequence (P49840 whole entry): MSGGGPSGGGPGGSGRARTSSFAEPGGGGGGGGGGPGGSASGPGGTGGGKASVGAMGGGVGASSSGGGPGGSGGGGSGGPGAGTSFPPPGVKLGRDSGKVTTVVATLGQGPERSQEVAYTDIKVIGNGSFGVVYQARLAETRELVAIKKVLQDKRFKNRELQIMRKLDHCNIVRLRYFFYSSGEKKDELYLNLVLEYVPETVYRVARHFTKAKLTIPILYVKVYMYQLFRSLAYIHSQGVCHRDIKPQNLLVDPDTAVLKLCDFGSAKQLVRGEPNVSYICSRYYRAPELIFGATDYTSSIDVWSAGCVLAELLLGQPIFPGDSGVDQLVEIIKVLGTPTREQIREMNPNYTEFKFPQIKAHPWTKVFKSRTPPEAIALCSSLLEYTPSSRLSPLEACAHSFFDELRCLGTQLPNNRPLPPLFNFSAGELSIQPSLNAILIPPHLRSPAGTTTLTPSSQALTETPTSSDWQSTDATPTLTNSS
Summary of the method: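 Z-LYTE FRET assay: GSK3-α (500 ng/mL stock) preincubated 105 min at RT with compound at 10, 1, 0.1 or 0.01 μg/mL stock. FRET peptide (8 μM stock) and ATP (40 μM stock) were then added for 1 h, followed by protease development for 1 h. Phosphorylation was read as coumarin/fluorescein emission ratio.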

p38 MAPKα (MAPK14), sequence (Q16539 whole entry): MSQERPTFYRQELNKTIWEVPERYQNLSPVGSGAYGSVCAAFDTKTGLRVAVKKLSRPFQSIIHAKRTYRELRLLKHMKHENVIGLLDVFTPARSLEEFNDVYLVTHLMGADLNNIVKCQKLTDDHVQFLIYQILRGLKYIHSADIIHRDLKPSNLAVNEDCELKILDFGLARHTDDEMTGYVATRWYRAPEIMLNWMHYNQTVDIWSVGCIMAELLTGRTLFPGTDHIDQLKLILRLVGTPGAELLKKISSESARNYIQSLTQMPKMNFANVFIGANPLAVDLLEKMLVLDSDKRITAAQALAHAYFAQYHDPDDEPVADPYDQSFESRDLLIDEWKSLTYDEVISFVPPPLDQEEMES

Row | Structure (SMILES) | IC50 (p38 MAPKα (MAPK14)) | IC50 (Syk) | % β-catenin induction ([1]; test compound 1 μg/mL) | % β-catenin induction ([1]; test compound 5 μg/mL) | % β-catenin induction ([1]; test compound 10 μg/mL) | IC50 (c-Src) | IC50 (GSK 3α)
1 | C#Cc1cc(Nc2cc(Oc3ccc(NC(=O)Nc4cc(C(C)(C)C)cc(NS(C)(=O)=O)c4OC)c4ccccc34)ccn2)cc(C(=O)NCCN2CCOCC2)c1 [Example 49, 3-((4-((4-(3-(5-(tert-Butyl)-2-methoxy-3-methylsulfonamido)phenyl)ureido)naphthalen-1-yl)oxy)pyridin-2-yl)amino-5-ethynyl-N-(2-morpholinoethyl)benzamide] | 258 nM | 1220 nM | −1% | −2% | −5% | 56 nM | 8360 nM
2 | COCCOCCOCCOc1cc(Nc2nccc(Oc3ccc(NC(=O)Nc4cc(C(C)(C)C)cc(C(=O)NC5COC5)c4OC)c4ccccc34)n2)cc(OC)c1 [Example 51, 5-(tert-Butyl)-2-methoxy-3-(3-(4-((2-((3-methoxy-5-(2-(2-(2-methoxyethoxy)ethoxy)-ethoxy)phenyl)amino)pyrimidin-4-yl)oxy)naphthalen-1-yl)ureido)-N-(oxetan-3-yl)-benzamide] | 170 nM | 49 nM | 3% | 33% | 29% | 15 nM | 977 nM
3 | C#Cc1cc(Nc2cc(Oc3ccc(NC(=O)Nc4cc(C(C)(C)C)cc(NS(C)(=O)=O)c4OC)c4ccccc34)ccn2)cc(C(=O)NCCOCCOC)c1 [Example 52] | 277 nM | 1260 nM | 2% | 9% | 1% | 100 nM | 12600 nM
4 | C#Cc1cc(Nc2cc(Oc3ccc(NC(=O)Nc4cc(C(C)(C)C)cc(C(N)=O)c4OC)c4ccccc34)ccn2)cc(C(=O)NCCOCCOCCOC)c1 [Example 53, 3-((4-((4-(3-(5-(tert-Butyl)-3-carbamoyl-2-methoxyphenyl)ureido)naphthalen-1-yl)oxy)pyridin-2-yl)amino)-5-ethynyl-N-(2-(2-(2-methoxyethoxy)ethoxy)ethyl)benzamide] | 132 nM | 1270 nM | −1% | 1% | 2% | 46 nM | 8780 nM
5 | C#Cc1cc(Nc2cc(Oc3ccc(NC(=O)Nc4cc(C(C)(C)C)cc(NS(C)(=O)=O)c4OC)c4ccccc34)ccn2)cc(C(=O)NCCOCCOCCOC)c1 [Example 54] | 140 nM | 1190 nM | 5% | 5% | −2% | 42 nM | 11900 nM
6 | COCCOCCOCCOc1cc(Nc2nccc(Oc3ccc(NC(=O)Nc4cc(C(C)(C)C)cc(S(N)(=O)=O)c4OC)c4ccccc34)n2)cc(OC)c1 [Example 55, 5-(tert-Butyl)-2-methoxy-3-(3-(4-((2-((3-methoxy-5-(2-(2-(2-methoxyethoxy)ethoxy)-ethoxy)phenyl)amino)pyrimidin-4-yl)oxy)naphthalen-1-yl)ureido)benzenesulfonamide] | 157 nM | 131 nM | 11% | 23% | 45% | 22 nM | 2360 nM
7 | C#Cc1cc(Nc2nccc(Oc3ccc(NC(=O)Nc4cc(C(C)(C)C)cc(NS(C)(=O)=O)c4OC)c4ccccc34)n2)cc(C(=O)N[C@H](C)CN2CCOCC2)c1 [Example 56, (R)-3-((4-((4-(3-(5-(tert-Butyl)-2-methoxy-3-(methysulfonamido)phenyl)ureido)-naphthalen-1-yl)oxy)pyrimidin-2-yl)amino)-5-ethynyl-N-(1-morpholinopropan-2-yl)-benzamide] | 335 nM | 631 nM | 3% | 13% | 14% | 45 nM | 763 nM
8 | C#Cc1cc(Nc2nccc(Oc3ccc(NC(=O)Nc4cc(C(C)(C)C)cc(NS(C)(=O)=O)c4OC)c4ccccc34)n2)cc(C(=O)N[C@@H](C)CN2CCOCC2)c1 [Example 57, (S)-3-((4-((4-(3-(5-(tert-butyl)-2-methoxy-3-(methylsulfonamido)phenyl)ureido)-naphthalen-1-yl)oxy)pyrimidin-2-yl)amino)-5-ethynyl-N-(1-morpholinopropan-2-yl)benzamide] | 286 nM | 706 nM | 4% | 6% | 11% | 48 nM | 1120 nM
9 | COCCOCCOCCOc1cc(Nc2nccc(Oc3ccc(NC(=O)Nc4cc(C(C)(C)C)cc(NS(C)(=O)=O)c4OC)c4ccccc34)n2)cc(OC)c1Cl [Example 58, N-(5-(tert-Butyl)-3-(3-(4-((2-((4-chloro-3-methoxy-5-(2-(2-(2-methoxyethoxy)ethoxy)ethoxy)-phenyl)amino)pyrimidin-4-yl)oxy)naphthalen-1-yl)ureido)-2-methoxyphenyl)-methanesulfonamide] | 181 nM | 461 nM | 5% | 2% | 10% | 48 nM | 4340 nM
10 | COCCOCCOCCOc1cc(Nc2nccc(Oc3ccc(NC(=O)Nc4cc(C(C)(C)C)cc(-c5nnco5)c4OC)c4ccccc34)n2)cc(OC)c1 [Example 59, 1-(5-(tert-Butyl)-2-methoxy-3-(1,3,4-oxadiazol-2-yl)phenyl)-3-(4-((2-((3-methoxy-5-(2-(2-(2-methoxyethoxy)ethoxy)ethoxy)phenyl)amino)pyrimidin-4-yl)oxy)naphthalen-1-yl)urea] | 132 nM | 128 nM | 14% | 33% | 28% | 28 nM | 978 nM
11 | C#Cc1cc(Nc2cc(Oc3ccc(NC(=O)Nc4cc(NS(C)(=O)=O)cc(C(C)(C)C)c4)c4ccccc34)ccn2)cc(C(=O)NCCN2CCOCC2)c1 [Example 65, 3-((4-((4-(3-(3-(tert-Butyl)-5-(methylsulfonamido)phenyl)ureido)naphthalen-1-yl)oxy)-pyridin-2-yl)amino)-5-ethynyl-N-(2-morpholinoethyl)benzamide] | 326 nM | 1290 nM | 5% | 2% | 6% | 85 nM | 7400 nM
12 | C#Cc1cc(Nc2cc(Oc3ccc(NC(=O)Nc4cc(C(C)(C)C)cc(NS(C)(=O)=O)c4OC)c4ccccc34)ccn2)cc(C(=O)N[C@@H](C)COCCOCCOC)c1 [Example 67] | 245 nM | 1170 nM | 3% | 2% | −2% | 56 nM | 11700 nM
13 | C#Cc1cc(Nc2cc(Oc3ccc(NC(=O)Nc4cc(C(C)(C)C)cc(NS(C)(=O)=O)c4OC)c4ccccc34)ccn2)cc(C(=O)N[C@H](C)COCCOCCOC)c1 [Example 68, (R)-3-((4-((4-(3-(5-(tert-Butyl)-2-methoxy-3-(methylsulfonamido)phenyl)ureido)-naphthalen-1-yl)oxy)pyridin-2-yl)amino)-5-ethynyl-N-(1-(2-(2-methoxyethoxy)ethoxy)-propan-2-yl)benzamide] | 209 nM | 1170 nM | 2% | 2% | −1% | 70 nM | 11700 nM
14 | CCOc1c(NC(=O)Nc2ccc(Oc3ccnc(Nc4cc(OC)cc(OCCOCCOCCOC)c4)n3)c3ccccc23)cc(C(C)(C)C)cc1NS(C)(=O)=O [Example 69] | 147 nM | 121 nM | 10% | 17% | 25% | 13 nM | 1530 nM
15 | COCCOCCOCCOc1cc(Nc2cc(Oc3ccc(NC(=O)Nc4cc(C(C)(C)C)cc(C(=O)NCCN(C)C)c4OC)c4ccccc34)ccn2)cc(OC)c1 [Example 76, 5-(tert-Butyl)-N-(2-(dimethylamino)ethyl)-2-methoxy-3-(3-(4-((2-((3-methoxy-5-(2-(2-(2-methoxyethoxy)ethoxy)ethoxy)phenyl)amino)pyridin-4-yl)oxy)naphthalen-1-yl)ureido)-benzamide] | 159 nM | 35 nM | 2% | −1% | −13% | 31 nM | 4790 nM
16 | COCCOCCOCCOc1cc(Nc2cc(Oc3ccc(NC(=O)Nc4cc(C(C)(C)C)cc(C(=O)NC5COC5)c4OC)c4ccccc34)ccn2)cc(OC)c1 [Example 77, 5-(tert-Butyl)-2-methoxy-3-(3-(4-((2-((3-methoxy-5-(2-(2-(2-methoxyethoxy)ethoxy)ethoxy)-phenyl)amino)pyridin-4-yl)oxy)naphthalen-1-yl)ureido)-N-(oxetan-3-yl)benzamide] | 216 nM | 39 nM | −4% | −1% | −1% | 23 nM | 3540 nM

Reference: patent US9481648B2, “Kinase inhibitors” (Respivert Limited, priority 2013, dated 2016)
